What was measured:
[1] = system: Winter oilseed rape (cv. Pronto); assay: Root growth and morphological parameters in winter oilseed rape (Example 2); assay type: in vivo; settings: based on untreated control; for SPAD: green coloration
Procedure: The formulations employed in Example 2 are prepared by introducing an emulsion concentrate comprising 60 g/l metconazole, of the formula (II), and/or an aqueous concentrate comprising 460 g/l mepiquat chloride in suitable amounts. The combination of mepiquat chloride and metconazole is employed in the form of an aqueous SL readymix comprising 21 g/l metconazole, 300 g/l mepiquat chloride and 610 g/l further formulation auxiliaries.
Winter oilseed rape (cv. Pronto) was sown in autumn (Sep. 13, 2000) and treated approximately one month later (Oct. 19, 2000) in accordance with the information given in Table 2. Some of the plants were harvested in autumn on Dec. 07, 2000, while others were harvested in spring on Apr. 03, 2001 and the following morphological parameters were analyzed: plant length; shoot fresh and dry weight (drying: 24 h at 105° C.); total area of all leaves; SPAP (relative units of green coloration determined using a Minolta chlorophyll-measuring meter SPAP 502); root fresh and dry weight (drying: 24 h at 105° C.); storage root fresh weight; length, surface area and volume of the hair roots, and number of root tips (scanning and WinRhizo determination). The results, each of which is based on the untreated control, are compiled in Table 2, the values for the plants harvested in autumn being shown first and the values for the plants harvested in spring being shown second.

[2] = system: Winter oilseed rape (cv. Pronto); assay: Shoot elongation in winter oilseed rape (Example 1); assay type: in vivo; settings: treated Oct. 19, 2000; for Stage A1: Reduction / Stage A1: rel. length: rating A1 Oct. 26, 2000; for Stage A2: Reduction / Stage A2: rel. length: rating A2 Nov. 16, 2000
Procedure: The tank mixes employed in Example 1 are prepared by stirring an emulsion concentrate comprising 90 g/l metconazole, of the formula (II), and an aqueous concentrate comprising 600 g/l mepiquat chloride (MQC) using a magnetic stirrer.
Winter oilseed rape (cv. Pronto) was sown in autumn (Sep. 13, 2000) and treated approximately one month later (Oct. 19, 2000) in accordance with the information given in Table 1. A few weeks later, the shoot elongation and the root development were assessed (A1 on Oct. 26, 2000 and A2 on Nov. 16, 2000).

[3] = 400 g/ha, autumn harvest Dec. 07, 2000
[4] = 400 g/ha, spring harvest Apr. 03, 2001
[5] = 28 g/ha, autumn harvest Dec. 07, 2000
[6] = 28 g/ha, spring harvest Apr. 03, 2001
[7] = 84 g/ha, autumn harvest Dec. 07, 2000
[8] = 84 g/ha, spring harvest Apr. 03, 2001

`C[N+]1(C)CCCCC1.[Cl-]` [MQC, N,N-dimethylpiperidinium chloride] was tested, and the “Hair root surface area” value [1, 3] was 131%, the Hair root volume [1, 3] was 154% and the Leaf surface area [1, 3] was 116%. The “Number of root tips” value [1, 3] was 94%, the Plant height [1, 3] was 96% and the Root hair length [1, 3] was 112%. The Shoot dry weight [1, 3] was 112%, the Shoot fresh weight [1, 3] was 111% and the “Storage root fresh weight” value [1, 3] was 118%. For the same molecule, the “Total root dry weight” value [1, 3] was 120%, the “Total root fresh weight” value [1, 3] was 123% and the SPAD [1, 3] was 102; 102. For the same molecule, the “Hair root surface area” value [1, 4] was 136%, the Hair root volume [1, 4] was 157% and the Leaf surface area [1, 4] was 103%. For the same molecule, the “Number of root tips” value [1, 4] was 123%, the Plant height [1, 4] was 93% and the Root hair length [1, 4] was 123%. The Shoot dry weight [1, 4] was 99%, the Shoot fresh weight [1, 4] was 114% and the “Storage root fresh weight” value [1, 4] was 94%. The “Total root dry weight” value [1, 4] was 107%, the “Total root fresh weight” value [1, 4] was 112% and the SPAD [1, 4] was 102; 102. For the same molecule, the “Stage A1: Reduction” value ([2]; 400 g/ha) was 0%, the “Stage A1: rel. length” value ([2]; 400 g/ha) was 100 and the “Stage A2: Reduction” value ([2]; 400 g/ha) was 4%. The “Stage A2: rel. length” value ([2]; 400 g/ha) was 96.

`CC1(C)CCC(Cc2ccc(Cl)cc2)C1(O)Cn1cncn1` (centres unmarked) [Metconazole, metconazole] was tested, and the “Hair root surface area” value [1, 5] was 116%, the Hair root volume [1, 5] was 125% and the Leaf surface area [1, 5] was 84%. For the same molecule, the “Number of root tips” value [1, 5] was 93%, the Plant height [1, 5] was 61% and the Root hair length [1, 5] was 107%. For the same molecule, the Shoot dry weight [1, 5] was 85%, the Shoot fresh weight [1, 5] was 82% and the “Storage root fresh weight” value [1, 5] was 94%. The “Total root dry weight” value [1, 5] was 94%, the “Total root fresh weight” value [1, 5] was 92% and the SPAD [1, 5] was 107. The “Hair root surface area” value [1, 6] was 134%, the Hair root volume [1, 6] was 145% and the Leaf surface area [1, 6] was 106%. For the same molecule, the “Number of root tips” value [1, 6] was 112%, the Plant height [1, 6] was 91% and the Root hair length [1, 6] was 126%. The Shoot dry weight [1, 6] was 112%, the Shoot fresh weight [1, 6] was 122% and the “Storage root fresh weight” value [1, 6] was 115%. For the same molecule, the “Total root dry weight” value [1, 6] was 128%, the “Total root fresh weight” value [1, 6] was 115% and the SPAD [1, 6] was 103. For the same molecule, the “Hair root surface area” value [1, 7] was 97%, the Hair root volume [1, 7] was 101% and the Leaf surface area [1, 7] was 61%. For the same molecule, the “Number of root tips” value [1, 7] was 87%, the Plant height [1, 7] was 46% and the Root hair length [1, 7] was 94%. For the same molecule, the Shoot dry weight [1, 7] was 67%, the Shoot fresh weight [1, 7] was 57% and the “Storage root fresh weight” value [1, 7] was 74%. The “Total root dry weight” value [1, 7] was 75%, the “Total root fresh weight” value [1, 7] was 78% and the SPAD [1, 7] was 116. The “Hair root surface area” value [1, 8] was 148%, the Hair root volume [1, 8] was 183% and the Leaf surface area [1, 8] was 127%. For the same molecule, the “Number of root tips” value [1, 8] was 116%, the Plant height [1, 8] was 86% and the Root hair length [1, 8] was 129%. For the same molecule, the Shoot dry weight [1, 8] was 136%, the Shoot fresh weight [1, 8] was 150% and the “Storage root fresh weight” value [1, 8] was 138%. The “Total root dry weight” value [1, 8] was 161%, the “Total root fresh weight” value [1, 8] was 150% and the SPAD [1, 8] was 104. The “Stage A1: Reduction” value ([2]; 21 g/ha) was 19%, the “Stage A1: rel. length” value ([2]; 21 g/ha) was 81 and the “Stage A2: Reduction” value ([2]; 21 g/ha) was 39%. For the same molecule, the “Stage A2: rel. length” value ([2]; 21 g/ha) was 61.
